These are literature values, as cited in patent US20100029551A1, “Treatment Of Inflammatory Lung Conditions With Aerosolized Macrolide Antibiotics” (priority 2008, published 2010).

As to `CO[C@]1(C)C[C@@H](C)C(=O)[C@H](C)[C@@H](O)[C@](C)(O)[C@@H](C(C)O)OC(=O)[C@H](C)[C@@H](O[C@H]2C[C@@](C)(OC)[C@@H](O)[C@H](C)O2)[C@H](C)[C@H]1O[C@@H]1O[C@H](C)C[C@H](N(C)C)[C@H]1O` (some centres unmarked) [14-hydroxy clarithromycin], the “Activity relative to clarithromycin” value (first-pass metabolite of clarithromycin) is listed as “approximately twice as active as clarithromycin”. Further, the “Plasma half-life relative to clarithromycin” value (plasma) is “significantly longer plasma half-life than clarithromycin”.
